Reference: US20120157519A1 (priority 2009, published 2012)

Assays:
721.221 target cells = type: cell-based; conditions: effector cells pre-incubated 24 hours with AS101; high concentrations less effective than moderate
[1] = test system: H1N1 (swine) influenza virus; type: cell-based, swine influenza H1N1v virus
H1N1 influenza virus = test system: H1N1 influenza virus; set-up: species or system BALB/c mice; conditions: mouse, in vivo
[2] = test system: human immunodeficiency virus type 1 (HIV-1); conditions: Vonsover et al., AIDS Res Hum Retroviruses 1992; cited from earlier work
primary NK cells = type: cell-based; conditions: 24 hours incubation, 0.1-5 μg/ml, supernatant ELISA
YTS cells = type: cell-based
[3] = test system: mouse cytomegalovirus (MCMV); conditions: Sredni et al., Immunol Lett 1994; cited from earlier work
H5N1 virus = type: cell-based
INFγ = type: in vivo, mice; conditions: treated 24 hours before infection, six days after infection
H5N1 influenza virus = test system: H5N1 influenza virus; set-up: species or system BALB/c mice; conditions: mouse, in vivo
[4] = test system: phosphorylated Akt (PI3k-Akt signaling); type: cell-based, canine

SMILES | NK killing of target cells (721.221 target cells) | H1N1 virus infection, administered concomitantly with the virus [1] | H1N1 virus infection, each tested administration time [1] | replication of H1N1 influenza virus (viral titer by ELISA) [1] | H1N1 virus in infected mice (lung titer, real-time RT-PCR) (H1N1 influenza virus) | H1N1 virus titers in the lungs, each tested administration time (H1N1 influenza virus) | effect against human immunodeficiency virus type 1 (HIV-1) [2] | toxicity to the cells (MTT) (MDCK cells) | IFN-γ secretion by primary NK cells (primary NK cells) | AS101 concentration at which the effect on IFN-γ secretion decreased (YTS cells) | IFN-γ secretion by YTS cells (YTS cells) | effect against mouse cytomegalovirus (MCMV) [3] | protection of cells from viral infection by supernatant of treated cells (H5N1 virus) | interferon secretion in lungs of H5N1 infected mice (INFγ) | H5N1 virus in infected mice (lung titer, real-time RT-PCR) (H5N1 influenza virus) | H5N1 virus titers in the lungs, each tested administration time (H5N1 influenza virus) | body weight loss after infection (H5N1 influenza virus; ip) | level of phosphorylated Akt, AS101 treatment alone [4] | level of phosphorylated Akt, cells infected with H5N1 virus ([4]; MDCK cells, 2 μg/ml, 10^2×TCID50 H5N1, 24 hours)
Cl[TeH]1(Cl)(Cl)OCCO1 [AS101, ammonium trichloro(dioxyethylene-O,O′)tellurate] | increased NK killing | strongest inhibition | inhibition | significant inhibition | significant inhibition | significantly reduced | inhibitory effect | not toxic | increased secretion | above 1 μg/ml | increased secretion | inhibitory effect | can protect cells from viral infection | restored interferon secretion to the levels observed in uninfected mice | significant inhibition | significantly reduced | weight loss was reduced somewhat | increased | dramatically reduced levels
CCOC(=O)C1=C[C@@H](OC(CC)CC)[C@H](NC(C)=O)[C@@H](N)C1 [oseltamivir, reference compound] |  |  |  |  | Inhibition |  |  |  |  |  |  |  |  |  |  |  |  |  | 
